Laboratory results published in patent US10442804B2, “Compounds for the treatment of hepatitis B virus infection” (Gilead Sciences, Inc., priority 2017, dated 2019).
Like-named read-outs stand apart in the source and are kept apart here.

Experiments:
MT-4 cytotoxicity assay = format: cell-based, human; settings: human
Method: Biological Example 2: MT-4 Cytotoxicity Assay
The MT-4 cell line (HTLV-1 transformed, human T lymphoblastoid cells) was obtained from the NIH AIDS Reagent program (Bethesda, Md.). MT-4 cells were maintained in RPMI-1640 media (Thermo Fisher Scientific, Waltham, Mass.) supplemented with 10% fetal bovine serum, 100 Units/mL penicillin, and 100 μg/mL streptomycin. For the MT-4 cytotoxicity assay, 0.4 μL of serially diluted solutions of certain compounds disclosed herein were added to 40 μL of cell maintenance media in 384-well black, solid bottom plate using a Biomek FX workstation (Beckman Coulter, Brea, Calif.). Two thousand cells in 35 μL were added to each well using a Biotek uFlow Workstation (Biotek, Winooski, Vt.). Each assay plate contained 10 μM puromycin (final concentration) and 0.5% DMSO in RPMI-1640 media as positive and negative controls, respectively. Assay plates were incubated for five days at 37° C. in an incubator set at 5% CO2 and 90% humidity. After five days, 22 μL of Cell Titer Glo reagent (Promega, Madison, Wis.) was added to the assay plates with a Biotek uFlow Workstation. Plates were subsequently placed on an Envision Plate Reader (Perkin Elmer, Waltham, Mass.) for five minutes before the luminescence signal was read. CC50 values were defined as the compound concentration that caused a 50% decrease in luminescence signal, and were calculated by non-linear regression using Pipeline Pilot software by applying a four parameter fit equation (Accelrys, San Diego, Calif.) and are reported in the following Table 1.

[1] = system: HBV-infected NTCP-HepG2 cells, secreted HBsAg; assay: microbe, parasite or virus in culture; format: cell-based, hepatitis B virus (genotype D, AD38-derived); settings: Hepatitis B virus, 120 h, read-out: NTCP HBsAg EC50
Method: NTCP-HepG2 Antiviral Assay for Secreted HBsAg
HepG2 cells stably expressing sodium-taurocholate cotransporting polypeptide (NTCP-HepG2) were grown in Dulbecco's Modified Eagle Medium (DMEM) without sodium pyruvate (Thermo Fisher Scientific, Waltham, Mass.) supplemented with 10% fetal bovine serum, 2 mM L-glutamine, 1% penicillin/streptomycin, and 0.25 mg/mL G-418. NTCP-HepG2 cells were infected with 4000 genome equivalent per cell of genotype D (AD38-derived) HBV in DMEM without sodium pyruvate (Thermo Fisher Scientific, Waltham, Mass.) supplemented with 2% fetal bovine serum, 2 mM L-glutamine, 1% penicillin/streptomycin, 2.5% DMSO, and 4% PEG 8000 (Promega, Madison, Wis.). After 24-hour incubation, cells were washed three times with OptiMEM (Thermo Fisher Scientific, Waltham, Mass.) and fed with fresh DMEM without sodium pyruvate (Thermo Fisher Scientific, Waltham, Mass.) supplemented with 2% fetal bovine serum, 2 mM L-glutamine, 1% penicillin/streptomycin, and 2.5% DMSO. At 4 days after infection, infected NTCP-HepG2 cells were seeded on 384-well plates pre-coated with collagen at a density of 20000 cells per well containing serially diluted compounds of the present disclosure or DMSO (0.5%) in a final volume of 80 μl of DMEM without sodium pyruvate (Thermo Fisher Scientific, Waltham, Mass.) supplemented with 2% fetal bovine serum, 2 mM L-glutamine, 1% penicillin/streptomycin, and 1% DMSO. After an incubation time of 5 days, cell culture supernatant was collected and measured for HBsAg.
Secreted HBsAg in the supernatant were measured using a multiplex chemiluminescent MSD assay (Meso Scale Discovery, Rockville, Md.) using capture and detection antibody pairs specific for HBsAg. The EC50 values were calculated from the fit of the dose-response curves to a four-parameter equation. All EC50 values represent geometric mean values of a minimum of four determinations.

[2] = five days, Cell Titer Glo luminescence, read-out: MT-4 CC50
[3] = secreted HBsAg in supernatant after 5 days, geometric mean of minimum four determinations

Question: Which results are given for `CC1(C)CC[C@@H]2c3cc(OCc4ccccc4)c(OC(F)(F)F)cc3-c3cc(=O)c(C(=O)O)cn3N21` [Example 75, (R)-12-(benzyloxy)-3,3-dimethyl-8-oxo-11-(trifluoromethoxy)-2,3,8,13b-tetrahydro-1H-pyrido[2,1-a]pyrrolo[1,2-c]phthalazine-7-carboxylic acid]?
Answer: CC50 at 5 days (MT-4 cytotoxicity assay; [2]): 5000 nM; EC50 [1]: 6.1 nM

Question: Which results are given for `COC(C)(C)C#Cc1cc2c(cc1C1CC1)-c1cc(=O)c(C(=O)O)cn1N1[C@@H]2CCC1(C)C` [Example 72, (R)-11-cyclopropyl-12-(3-methoxy-3-methylbut-1-yn-1-yl)-3,3-dimethyl-8-oxo-2,3,8,13b-tetrahydro-1H-pyrido[2,1-a]pyrrolo[1,2-c]phthalazine-7-carboxylic acid]?
Answer: CC50 at 5 days (MT-4 cytotoxicity assay; [2]): 6400 nM; EC50 [1, 3]: 0.95 nM

Question: Which results are given for `CC1(C)CC[C@@H]2c3cc(-c4cnn(C(F)F)c4)c(Cl)cc3-c3cc(=O)c(C(=O)O)cn3N21` [Example 76, (R)-11-chloro-12-(1-(difluoromethyl)-1H-pyrazol-4-yl)-3,3-dimethyl-8-oxo-2,3,8,13b-tetrahydro-1H-pyrido[2,1-a]pyrrolo[1,2-c]phthalazine-7-carboxylic acid]?
Answer: CC50 at 5 days (MT-4 cytotoxicity assay; [2]): 4400 nM; EC50 [1, 3]: 6.3 nM

Question: Which CC50 at 5 days (MT-4 cytotoxicity assay; [2]) does the source give for `CCOc1cc2c(cc1OCCCOC)[C@H]1CCC(C)(C)N1n1cc(C(=O)O)c(=O)cc1-2` [Example 21, (R)-11-ethoxy-12-(3-methoxypropoxy)-3,3-dimethyl-8-oxo-2,3,8,13b-tetrahydro-1H-pyrido[2,1-a]pyrrolo[1,2-c]phthalazine-7-carboxylic acid] here?
Answer: Its CC50 at 5 days is greater than 10000 nM.

Question: And the EC50 [1, 3]?
Answer: Its EC50 is 7.5 nM.

Question: With `COCCCOc1cc2c(cc1Cl)-c1cc(=O)c(C(=O)O)cn1N1[C@H](C)CC[C@H]21` (single isomer, unassigned) [Example 7] as the molecule, how does the CC50 at 5 days (MT-4 cytotoxicity assay; [2]) read?
Answer: The CC50 at 5 days was greater than 10000 nM.

Question: And the EC50 [1, 3]?
Answer: Its EC50 is 32 nM.

Question: What does the source list for `COCc1cc2c(cc1OCC13CC(C#N)(C1)C3)[C@H]1CCC3(CC3)N1n1cc(C(=O)O)c(=O)cc1-2` [Compound 107, (R)-12′-((3-cyanobicyclo[1.1.1]pentan-1-yl)methoxy)-11′-(methoxymethyl)-8′-oxo-1′,2′,8′,13b′-tetrahydrospiro[cyclopropane-1,3′-pyrido[2,1-a]pyrrolo[1,2-c]phthalazine]-7′-carboxylic acid]?
Answer: CC50 at 5 days (MT-4 cytotoxicity assay; MT-4 CC50): 7800 nM; EC50 [1, 3]: 5.9 nM

Question: Which CC50 at 5 days (MT-4 cytotoxicity assay; [2]) does the source give for `COc1cc2c(cc1C#CC(C)(C)OC)[C@H]1CCC(C)(C)N1n1cc(C(=O)O)c(=O)cc1-2` [Example 43] here?
Answer: The CC50 at 5 days was greater than 10000 nM.

Question: What about the EC50 [1, 3] of the same molecule?
Answer: The EC50 was 7.6 nM.

Question: With `CC1(C)CC[C@@H]2c3cc(OCC4CC(F)(F)C4)c(Cl)cc3-c3cc(=O)c(C(=O)O)cn3N21` [Example 54, (R)-11-chloro-12-((3,3-difluorocyclobutyl)methoxy)-3,3-dimethyl-8-oxo-2,3,8,13b-tetrahydro-1H-pyrido[2,1-a]pyrrolo[1,2-c]phthalazine-7-carboxylic acid] as the molecule, how does the CC50 at 5 days (MT-4 cytotoxicity assay; [2]) read?
Answer: Its CC50 at 5 days is 5300 nM.

Question: And the EC50 [1, 3]?
Answer: Its EC50 is 0.75 nM.

Question: Which CC50 at 5 days (MT-4 cytotoxicity assay; [2]) does the source give for `COc1cc2c(cc1C#CC(C)(C)S(C)(=O)=O)[C@H]1CCC(C)(C)N1n1cc(C(=O)O)c(=O)cc1-2` [Example 83, (R)-11-methoxy-3,3-dimethyl-12-(3-methyl-3-(methylsulfonyl)but-1-yn-1-yl)-8-oxo-2,3,8,13b-tetrahydro-1H-pyrido[2,1-a]pyrrolo[1,2-c]phthalazine-7-carboxylic acid] here?
Answer: Its CC50 at 5 days is greater than 10000 nM.

Question: What about the EC50 [1, 3] of the same molecule?
Answer: Its EC50 is 9.6 nM.

Question: For `COCCCOc1c(OC)cc2c(c1Br)[C@H]1CCC(C)(C)N1n1cc(C(=O)O)c(=O)cc1-2` [Example 40, (R)-13-bromo-11-methoxy-12-(3-methoxypropoxy)-3,3-dimethyl-8-oxo-2,3,8,13b-tetrahydro-1H-pyrido[2,1-a]pyrrolo[1,2-c]phthalazine-7-carboxylic acid], which CC50 at 5 days (MT-4 cytotoxicity assay; [2]) is on record?
Answer: The CC50 at 5 days was 8800 nM.

Question: What about the EC50 [1, 3] of the same molecule?
Answer: The EC50 was 360 nM.

Question: With `COCCCOc1cc2c(cc1OC)-c1cc(=O)c(C(=O)O)cn1N1[C@H]2CCC1(C)C` [Example 15, (S)-11-methoxy-12-(3-methoxypropoxy)-3,3-dimethyl-8-oxo-2,3,8,13b-tetrahydro-1H-pyrido[2,1-a]pyrrolo[1,2-c]phthalazine-7-carboxylic acid] as the molecule, how does the CC50 at 5 days (MT-4 cytotoxicity assay; [2]) read?
Answer: The CC50 at 5 days was greater than 10000 nM.

Question: And the EC50 [1, 3]?
Answer: The EC50 was 350 nM.

Question: What does the source list for `CC1(C)CC[C@@H]2c3cc(OCC45CC(C#N)(C4)C5)c(C4CC4)cc3-c3cc(=O)c(C(=O)O)cn3N21` [Example 99, (R)-12-((3-cyanobicyclo[1.1.1]pentan-1-yl)methoxy)-11-cyclopropyl-3,3-dimethyl-8-oxo-2,3,8,13b-tetrahydro-1H-pyrido[2,1-a]pyrrolo[1,2-c]phthalazine-7-carboxylic acid]?
Answer: CC50 at 5 days (MT-4 cytotoxicity assay; [2]): 3600 nM; EC50 [1, 3]: 0.66 nM

Question: Which CC50 at 5 days (MT-4 cytotoxicity assay; [2]) does the source give for `CC1(C)CC[C@@H]2c3cc(OCCn4nc5ccccn5c4=O)c(OC(F)(F)F)cc3-c3cc(=O)c(C(=O)O)cn3N21` [Example 91, (R)-3,3-dimethyl-8-oxo-12-(2-(3-oxo-[1,2,4]triazolo[4,3-a]pyridin-2(3H)-yl)ethoxy)-11-(trifluoromethoxy)-2,3,8,13b-tetrahydro-H-pyrido[2,1-a]pyrrolo[1,2-c]phthalazine-7-carboxylic acid] here?
Answer: The CC50 at 5 days was greater than 10000 nM.

Question: And the EC50 [1, 3]?
Answer: Its EC50 is 3 nM.

Question: For `COCCCOc1cc2c(cc1Cl)-c1cc(=O)c(C(=O)O)cn1N1CC(C)(C)C[C@H]21` (single isomer, unassigned) [Example 29], which CC50 at 5 days (MT-4 cytotoxicity assay; [2]) is on record?
Answer: The CC50 at 5 days was greater than 10000 nM.

Question: And the EC50 [1, 3]?
Answer: The EC50 was 14 nM.

Question: For `COCCCOc1cc2c(cc1C1CC1)-c1cc(=O)c(C(=O)O)cn1N1[C@@H]2COCC1(C)C` [Example 101, (S)-12-cyclopropyl-13-(3-methoxypropoxy)-4,4-dimethyl-9-oxo-3,4,9,14b-tetrahydro-1H-[1,4]oxazino[3,4-a]pyrido[1,2-c]phthalazine-8-carboxylic acid], which CC50 at 5 days (MT-4 cytotoxicity assay; [2]) is on record?
Answer: The CC50 at 5 days was 8200 nM.

Question: And the EC50 [1, 3]?
Answer: Its EC50 is 0.7 nM.

Question: Which results are given for `COCCCOc1cc2c(cc1Cl)-c1cc(=O)c(C(=O)O)cn1N1CC(C)(C)C[C@@H]21` (single isomer, unassigned) [Example 30]?
Answer: CC50 at 5 days (MT-4 cytotoxicity assay; [2]): > 10000 nM; EC50 [1, 3]: 10 nM

Question: Which CC50 at 5 days (MT-4 cytotoxicity assay; [2]) does the source give for `CC(C)(C)OC(=O)[C@H]1CCN(c2cc3c(cc2OC(F)(F)F)-c2cc(=O)c(C(=O)O)cn2N2[C@@H]3CCC2(C)C)C1` [Compound 115, (R)-12-((S)-3-(tert-butoxycarbonyl)pyrrolidin-1-yl)-3,3-dimethyl-8-oxo-11-(trifluoromethoxy)-2,3,8,13b-tetrahydro-1H-pyrido[2,1-a]pyrrolo[1,2-c]phthalazine-7-carboxylic acid] here?
Answer: Its CC50 at 5 days is 8300 nM.

Question: What about the EC50 [1, 3] of the same molecule?
Answer: Its EC50 is 2.9 nM.

Question: Which results are given for `COCCCOc1cc2c(cc1COC)-c1cc(=O)c(C(=O)O)cn1N1[C@@H]2CCC12CC2` [Example 87, (R)-11′-(methoxymethyl)-12′-(3-methoxypropoxy)-8′-oxo-1′,2′,8′,13b′-tetrahydrospiro[cyclopropane-1,3′-pyrido[2,1-a]pyrrolo[1,2-c]phthalazine]-7′-carboxylic acid]?
Answer: CC50 at 5 days (MT-4 cytotoxicity assay; MT-4 CC50): > 10000 nM; EC50 [1, 3]: 4.2 nM

Question: Which results are given for `COCc1cc2c(cc1OCCCOC1COC1)[C@H]1CCC(C)(C)N1n1cc(C(=O)O)c(=O)cc1-2` [Example 94, (R)-11-(methoxymethyl)-3,3-dimethyl-12-(3-(oxetan-3-yloxy)propoxy)-8-oxo-2,3,8,13b-tetrahydro-1H-pyrido[2,1-a]pyrrolo[1,2-c]phthalazine-7-carboxylic acid]?
Answer: CC50 at 5 days (MT-4 cytotoxicity assay; [2]): > 10000 nM; EC50 [1, 3]: 6 nM

Question: With `COCCCOc1cc2c(cc1Cl)-c1cc(=O)c(C(=O)O)cn1N1[C@@H]2CCC12COC(C)(C)OC2` [Example 81, (R)-11-chloro-12-(3-methoxypropoxy)-2′,2′-dimethyl-8-oxo-1,2,8,13b-tetrahydrospiro[pyrido[2,1-a]pyrrolo[1,2-c]phthalazine-3,5′-[1,3]dioxane]-7-carboxylic acid] as the molecule, how does the CC50 at 5 days (MT-4 cytotoxicity assay; [2]) read?
Answer: The CC50 at 5 days was greater than 10000 nM.

Question: What about the EC50 [1, 3] of the same molecule?
Answer: Its EC50 is 386 nM.
